Each structure is given as a SMILES string.

The assay deals with T1, CgNce103 (Nakaseomyces glabratus, UniProt Q6FTL6).
T1 construct: gene NCE103; enzyme preparation, host and tags not described
T1 sequence (Q6FTL6 1-219): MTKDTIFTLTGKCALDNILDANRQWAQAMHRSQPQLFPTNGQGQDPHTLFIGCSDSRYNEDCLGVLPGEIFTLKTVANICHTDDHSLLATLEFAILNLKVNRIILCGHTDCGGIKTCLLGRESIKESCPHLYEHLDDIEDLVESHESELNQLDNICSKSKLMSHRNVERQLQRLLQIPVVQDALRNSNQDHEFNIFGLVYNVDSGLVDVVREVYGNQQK
In words: stopped-flow CO2 hydration assay. In kind it is biochemical.
As to `NS(=O)(=O)c1ccc(NC(=S)N/N=C2\C(=O)Nc3c(F)cccc32)cc1` [4j, 1H-indole-2,3-dione 3-[N-(4-sulfamoylphenyl)thiosemicarbazone], R = 7-F], the affinity corresponds to a Ki of 15 nM.

In the case of `NS(=O)(=O)c1ccc(NC(=S)N/N=C2\C(=O)Nc3ccc([N+](=O)[O-])cc32)cc1` [4i, 1H-indole-2,3-dione 3-[N-(4-sulfamoylphenyl)thiosemicarbazone], R = 5-NO2], the affinity, expressed as Ki, was 42.1 nM.

For the compound `NS(=O)(=O)c1ccc(NC(=S)N/N=C2\C(=O)Nc3ccc(I)cc32)cc1` [4g, 1H-indole-2,3-dione 3-[N-(4-sulfamoylphenyl)thiosemicarbazone], R = 5-I], the Ki (usually the equilibrium dissociation constant of an inhibitor or competing ligand from its target) was found to be 19.8 nM.

The compound `NS(=O)(=O)c1ccc(NC(=S)N/N=C2\C(=O)Nc3ccccc32)cc1` [4a, 1H-indole-2,3-dione 3-[N-(4-sulfamoylphenyl)thiosemicarbazone], R = H] displayed a Ki of 63.9 nM.

For the compound `NS(=O)(=O)c1ccc(NC(=S)N/N=C2\C(=O)Nc3c(Br)cc(Br)cc32)cc1` [4m, 1H-indole-2,3-dione 3-[N-(4-sulfamoylphenyl)thiosemicarbazone], R = 5,7-diBr], the Ki was 46.6 nM.

`Cc1ccc2c(c1)/C(=N/NC(=S)Nc1ccc(S(N)(=O)=O)cc1)C(=O)N2` [4b, 1H-indole-2,3-dione 3-[N-(4-sulfamoylphenyl)thiosemicarbazone], R = 5-CH3] had a Ki of 54 nM.

`NS(=O)(=O)c1ccc(NC(=S)N/N=C2\C(=O)Nc3ccc(OC(F)(F)F)cc32)cc1` [4c, 1H-indole-2,3-dione 3-[N-(4-sulfamoylphenyl)thiosemicarbazone], R = 5-OCF3] yielded a Ki of 53.7 nM.

Compound `NS(=O)(=O)c1ccc(NC(=S)N/N=C2\C(=O)Nc3ccc(Cl)cc32)cc1` [4e, 1H-indole-2,3-dione 3-[N-(4-sulfamoylphenyl)thiosemicarbazone], R = 5-Cl] came in with a Ki of 41.3 nM.

`NS(=O)(=O)c1ccc(NC(=S)N/N=C2\C(=O)Nc3c(Cl)cc(Cl)cc32)cc1` [4l, 1H-indole-2,3-dione 3-[N-(4-sulfamoylphenyl)thiosemicarbazone], R = 5,7-diCl] registered a Ki of 6.4 nM.

Consider `NS(=O)(=O)c1ccc(NC(=S)N/N=C2\C(=O)Nc3c(Cl)cccc32)cc1` [4k, 1H-indole-2,3-dione 3-[N-(4-sulfamoylphenyl)thiosemicarbazone], R = 7-Cl], for which the Ki turned out to be 12.8 nM.

Take `NS(=O)(=O)c1ccc(NC(=S)N/N=C2\C(=O)Nc3ccc(F)cc32)cc1` [4d, 1H-indole-2,3-dione 3-[N-(4-sulfamoylphenyl)thiosemicarbazone], R = 5-F]: the Ki was 34.7 nM.

On to `NS(=O)(=O)c1ccc(NC(=S)N/N=C2\C(=O)Nc3ccc(Br)cc32)cc1` [4f, 1H-indole-2,3-dione 3-[N-(4-sulfamoylphenyl)thiosemicarbazone], R = 5-Br], for which the affinity, expressed as Ki, was 51.6 nM.

As for `NS(=O)(=O)c1ccc(NC(=S)N/N=C2\C(=O)Nc3ccc(S(=O)(=O)O)cc32)cc1` [4h, 1H-indole-2,3-dione 3-[N-(4-sulfamoylphenyl)thiosemicarbazone], R = 5-SO3Na], the affinity corresponds to a Ki of 19.8 nM.

These data come from PMC6366411, “Novel 2-indolinones containing a sulfonamide moiety as selective inhibitors of candida β-carbonic anhydrase enzyme” (Journal of Enzyme Inhibition and Medicinal Chemistry, 2019).
